We go through eight compounds from US20050131041A1, “Azole derivatives as antifungal agents” (priority 2002, published 2005).

In one assay the test system is Candida glabrata 90030. The assay can be described thus: MIC determination (NCCLS M27A/M38P broth dilution). Format: cell-based.
The next assay concerns Candida krusei 6258 (QC). The assay can be described thus: MIC determination (NCCLS M27A/M38P broth dilution). The format is cell-based. (In general: In broth dilution the organism is exposed to a series of concentrations in liquid medium.)
For assay [1], the system named is Paecilomyces variotti 22319(QC). The assay can be described thus: MIC determination (NCCLS M27A/M38P broth dilution). Format: cell-based.
Assay [2] concerns Cryptococcus neoformans M 106. The assay can be described thus: MIC determination (NCCLS M27A/M38P broth dilution). Format: cell-based.
In a further assay the test system is Candida krusei 766.1. In words: MIC determination (NCCLS M27A/M38P broth dilution). Format: cell-based.
The test system of assay [3] is Aspergillus fumigatus 1008. The assay can be described thus: MIC determination (NCCLS M27A/M38P broth dilution). The format is cell-based.
Assay [4] deals with Candida parapsilosis 22019 (QC). In words: MIC determination (NCCLS M27A/M38P broth dilution). The format is cell-based.
The test system of the next assay is Candida albicans 1122. In words: MIC determination (NCCLS M27A/M38P broth dilution). Format: cell-based.
A further assay has as its system Candida tropicalis 750. In words: MIC determination (NCCLS M27A/M38P broth dilution). Format: cell-based.
Assay [5] has as its system Aspergillus fumigatus Si-I. In words: MIC determination (NCCLS M27A/M38P broth dilution). Format: cell-based.
In another assay the test system is Candida albicans Y-01-19. In words: MIC determination (NCCLS M27A/M38P broth dilution). The format is cell-based.
For assay [6], the system named is ergosterol P450DM. As to conditions: cited from earlier work.
Assay [7] deals with ergosterol P450DM (Candida albicans, UniProt P10613). The note with it: cited from earlier work.
The next assay relates to Cryptococcus neoformans. As to conditions: cited from earlier work.
Setting [8] is: Candida krusei 6258 (QC), RPMI 1640, MOPS pH 7.
Where [9] appears, read: Paecilomyces variotti 22319(QC), RPMI 1640, MOPS pH 7.
Where [10] appears, read: Aspergillus fumigatus 1008, RPMI 1640, MOPS pH 7.
[11] abbreviates: Aspergillus fumigatus Si-I, RPMI 1640, MOPS pH 7.
The mark [12] stands for this setting: Nakaseomyces glabratus, RPMI 1640, MOPS pH 7, read-out: MIC.
Where [13] appears, read: Pichia kudriavzevii, Candida krusei 6258 (QC), RPMI 1640, MOPS pH 7, read-out: MIC.
The mark [14] stands for this setting: Paecilomyces variotti 22319(QC), RPMI 1640, MOPS pH 7, read-out: MIC.
Setting [15] is: M106, RPMI 1640, MOPS pH 7, read-out: MIC.
[16] abbreviates: Pichia kudriavzevii, RPMI 1640, MOPS pH 7, read-out: MIC.
Setting [17] is: RPMI 1640, MOPS pH 7, read-out: MIC.
[18] abbreviates: Y0119, RPMI 1640, MOPS pH 7, read-out: MIC.
Where [19] appears, read: Aspergillus fumigatus 1008, RPMI 1640, MOPS pH 7, read-out: MIC.

Each structure is given as a SMILES string. Converted amounts (≈) assume the structure as drawn. Read-outs that look alike come from different tables or passages of the source. A value given as a limit tells only on which side of the number the result lay.

ergosterol P450DM (Candida albicans, UniProt P10613), sequence (P10613 whole entry): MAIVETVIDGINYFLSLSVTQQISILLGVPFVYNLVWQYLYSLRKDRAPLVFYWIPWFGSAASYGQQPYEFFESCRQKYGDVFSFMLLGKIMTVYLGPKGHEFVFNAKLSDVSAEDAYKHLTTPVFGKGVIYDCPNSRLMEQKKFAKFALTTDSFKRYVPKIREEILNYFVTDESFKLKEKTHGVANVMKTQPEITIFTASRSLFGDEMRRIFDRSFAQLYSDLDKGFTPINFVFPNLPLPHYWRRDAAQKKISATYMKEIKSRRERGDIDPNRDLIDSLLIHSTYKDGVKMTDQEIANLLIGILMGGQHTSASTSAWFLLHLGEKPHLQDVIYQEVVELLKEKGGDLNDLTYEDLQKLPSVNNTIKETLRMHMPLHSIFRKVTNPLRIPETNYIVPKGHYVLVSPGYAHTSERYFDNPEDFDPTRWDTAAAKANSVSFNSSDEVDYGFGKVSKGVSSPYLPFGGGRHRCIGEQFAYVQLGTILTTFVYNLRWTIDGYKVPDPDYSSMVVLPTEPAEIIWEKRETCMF

Regarding `C[C@@H]1[C@H](O)[C@@H](C)/C=C/C=C/C=C/C=C/C=C/C=C/C=C/[C@H](O[C@@H]2O[C@H](C)[C@@H](O)[C@H](N)[C@@H]2O)C[C@@H]2O[C@](O)(C[C@@H](O)C[C@@H](O)[C@H](O)CC[C@@H](O)C[C@@H](O)CC(=O)O[C@H]1C)C[C@H](O)[C@H]2C(=O)O` [AMB, AMPHOTERICIN B], the minimal inhibitory concentration (MIC) (commonly the least concentration at which growth counts as inhibited) in the assay with Candida glabrata 90030 (RPMI 1640, MOPS pH 7) came out at 0.5 µg/mL (≈ 0.541 µM); in the assay on Candida krusei 6258 (QC) (setting [8]) it was 0.25 µg/mL (≈ 0.271 µM); in [1] (setting [9]) it was 0.25 µg/mL (≈ 0.271 µM); in assay [2] (RPMI 1640, MOPS pH 7), 0.06 µg/mL (≈ 0.0649 µM); in the assay with Candida krusei 766.1 (RPMI 1640, MOPS pH 7) it was 0.25 µg/mL (≈ 0.271 µM); in [3] (setting [10]), 0.25 µg/mL (≈ 0.271 µM). The MIC in assay [4] (RPMI 1640, MOPS pH 7) was 0.125 µg/mL (≈ 0.135 µM); with Candida albicans 1122 (RPMI 1640, MOPS pH 7) it was 0.25 µg/mL (≈ 0.271 µM); in the assay on Candida tropicalis 750 (RPMI 1640, MOPS pH 7) it was 0.125 µg/mL (≈ 0.135 µM); in assay [5] (setting [11]), 0.5 µg/mL (≈ 0.541 µM); in the assay on Candida albicans Y-01-19 (RPMI 1640, MOPS pH 7), 0.25 µg/mL (≈ 0.271 µM).
For `OC(Cn1cncn1)(Cn1cncn1)c1ccc(F)cc1F` [FLU, FLUCONAZOLE], the MIC in the assay with Candida glabrata 90030 (setting [12]) is 16 µg/mL (≈ 52.2 µM); in the assay with Candida krusei 6258 (QC) (setting [13]), 32 µg/mL (≈ 104 µM); in assay [1] (setting [14]), 2 µg/mL (≈ 6.53 µM); in assay [2] (setting [15]), 4 µg/mL (≈ 13.1 µM); with Candida krusei 766.1 (setting [16]), 64 µg/mL (≈ 209 µM); in [3] (Aspergillus fumigatus, 1008, pH 7) it was greater than 128 µg/mL. Also, the MIC was 2 µg/mL (≈ 6.53 µM) in [4] (setting [17]); 0.5 µg/mL (≈ 1.63 µM) with Candida albicans 1122 (setting [17]); 2 µg/mL (≈ 6.53 µM) in the assay with Candida tropicalis 750 (setting [17]); greater than 128 µg/mL in assay [5] (Aspergillus fumigatus, pH 7); 16 µg/mL (≈ 52.2 µM) in the assay on Candida albicans Y-01-19 (setting [18]).
For the compound `CCC(C)n1ncn(-c2ccc(N3CCN(c4ccc(OCC5COC(Cn6cncn6)(c6ccc(Cl)cc6Cl)O5)cc4)CC3)cc2)c1=O` (centres unmarked) [ITRA, ITRACONAZOLE], the MIC with Candida glabrata 90030 (setting [12]) amounted to 0.5 µg/mL (≈ 0.709 µM); against Candida krusei 6258 (QC) (Pichia kudriavzevii, pH 7) it was 0.125 µg/mL (≈ 0.177 µM); in assay [1] (Paecilomyces, pH 7), 0.125 µg/mL (≈ 0.177 µM); in [2] (setting [15]), 0.03 µg/mL (≈ 0.0425 µM); with Candida krusei 766.1 (setting [16]), 0.25 µg/mL (≈ 0.354 µM); in assay [3] (setting [19]), 0.25 µg/mL (≈ 0.354 µM). In addition, the MIC in assay [4] (setting [17]) came out at 0.03 µg/mL (≈ 0.0425 µM); in the assay with Candida albicans 1122 (setting [17]) it was 0.016 µg/mL (≈ 0.0227 µM); with Candida tropicalis 750 (setting [17]), 0.004 µg/mL (≈ 0.00567 µM); in assay [5] (Aspergillus fumigatus, pH 7) it was 0.125 µg/mL (≈ 0.177 µM); with Candida albicans Y-01-19 (setting [18]), 0.25 µg/mL (≈ 0.354 µM).
For the compound `C[C@@H](c1ncncc1F)[C@](O)(Cn1cncn1)c1ccc(F)cc1F` [VORI, VORICONAZOLE], the MIC with Candida glabrata 90030 (setting [12]) was found to be 1 µg/mL (≈ 2.86 µM); with Candida krusei 6258 (QC) (setting [13]), 0.25 µg/mL (≈ 0.716 µM); in assay [1] (setting [14]), 0.06 µg/mL (≈ 0.172 µM); in assay [2] (setting [15]) it was 0.06 µg/mL (≈ 0.172 µM); in the assay with Candida krusei 766.1 (setting [16]) it was 1 µg/mL (≈ 2.86 µM); in [3] (setting [19]), 0.25 µg/mL (≈ 0.716 µM). The MIC is 0.03 µg/mL (≈ 0.0859 µM) in assay [4] (setting [17]); 0.16 µg/mL (≈ 0.458 µM) in the assay with Candida albicans 1122 (setting [17]); 0.016 µg/mL (≈ 0.0458 µM) in the assay on Candida tropicalis 750 (setting [17]); 0.25 µg/mL (≈ 0.716 µM) in assay [5] (Aspergillus fumigatus Si-I, RPMI 1640, MOPS pH 7, read-out: MIC); 0.5 µg/mL (≈ 1.43 µM) in the assay with Candida albicans Y-01-19 (setting [18]). Moreover, the “greater inhibition of ergosterol P450DM compared to fluconazole” value was 160 fold with ergosterol P450DM [6] and 1.6 fold at ergosterol P450DM [7].
As to `CC[C@H](C)C[C@H](C)CCCCCCCCC(=O)N[C@H]1C[C@@H](O)[C@@H](NCCN)NC(=O)[C@@H]2[C@@H](O)CCN2C(=O)[C@H]([C@H](O)CCN)NC(=O)[C@H]([C@H](O)[C@@H](O)c2ccc(O)cc2)NC(=O)[C@@H]2C[C@@H](O)CN2C(=O)[C@H]([C@@H](C)O)NC1=O` [caspofungin, Caspofungin], the “activity against Cryptococcus neoformans” value in the assay with Cryptococcus neoformans is given as “not active”.
`C[C@@H](n1ccn(-c2ccc(-n3cnnn3)cc2)c1=S)[C@](O)(Cn1cncn1)c1ccc(F)cc1F` [compound 4, 1-[(1R,2R)-2-(2,4-Difluorophenyl)-2-hydroxy-1-methyl-3-(1H-1,2,4-triazol-1-yl)propyl]-3-[4-(1H-1-tetrazolyl)phenyl]-2-(1H,3H)-thioimidazolone]: the MIC against Candida glabrata 90030 (RPMI 1640, MOPS pH 7) was 0.06 µg/mL (≈ 0.121 µM); in the assay on Candida krusei 6258 (QC) (setting [8]), 0.25 µg/mL (≈ 0.505 µM); in assay [1] (setting [9]), 0.016 µg/mL (≈ 0.0323 µM); in [2] (RPMI 1640, MOPS pH 7), 0.03 µg/mL (≈ 0.0605 µM); against Candida krusei 766.1 (RPMI 1640, MOPS pH 7), 0.25 µg/mL (≈ 0.505 µM); in [3] (setting [10]), 0.25 µg/mL (≈ 0.505 µM). Also, the MIC is less than 0.00025 µg/mL in assay [4] (RPMI 1640, MOPS pH 7); 0.06 µg/mL (≈ 0.121 µM) against Candida albicans 1122 (RPMI 1640, MOPS pH 7); 0.004 µg/mL (≈ 0.00807 µM) against Candida tropicalis 750 (RPMI 1640, MOPS pH 7); 0.25 µg/mL (≈ 0.505 µM) in [5] (setting [11]); 0.25 µg/mL (≈ 0.505 µM) against Candida albicans Y-01-19 (RPMI 1640, MOPS pH 7).
Turning to `C[C@@H](n1ccn(-c2ccc(-n3ncnn3)cc2)c1=S)[C@](O)(Cn1cncn1)c1ccc(F)cc1F` [compound 5, 1-[(1R,2R)-2-(2,4-Difluorophenyl)-2-hydroxy-1-methyl-3-(1H-1,2,4-triazol-1-yl)propyl]-3-[4-(2H-2-tetrazolyl)phenyl]-2-(1H,3H)-thioimidazolone], the MIC was 1 µg/mL (≈ 2.02 µM) in the assay with Candida glabrata 90030 (RPMI 1640, MOPS pH 7); 0.06 µg/mL (≈ 0.121 µM) against Candida krusei 6258 (QC) (setting [8]); “Long trailing effect” in assay [1] (setting [9]); less than 0.00025 µg/mL in assay [2] (RPMI 1640, MOPS pH 7); 0.5 µg/mL (≈ 1.01 µM) against Candida krusei 766.1 (RPMI 1640, MOPS pH 7); 0.125 µg/mL (≈ 0.252 µM) in assay [3] (setting [10]). Also, the MIC in assay [4] (RPMI 1640, MOPS pH 7) was less than 0.00025 µg/mL; in the assay on Candida albicans 1122 (RPMI 1640, MOPS pH 7), less than 0.00025 µg/mL; in the assay on Candida tropicalis 750 (RPMI 1640, MOPS pH 7) it was less than 0.00025 µg/mL; in [5] (setting [11]), 0.016 µg/mL (≈ 0.0323 µM); against Candida albicans Y-01-19 (RPMI 1640, MOPS pH 7) it was 0.5 µg/mL (≈ 1.01 µM).
Take `C[C@@H](n1ccn(-c2ccc(OCC(F)(F)C(F)F)cc2)c1=S)[C@](O)(Cn1cncn1)c1ccc(F)cc1F` [compound 6, 1-[(1R,2R)-2-(2,4-Difluorophenyl)-2-hydroxy-1-methyl-3-(1H-1,2,4-triazol-1-yl)propyl]-3-[4-(2,2,3,3-tetrafluoropropoxy)phenyl]-2-(1H,3H)-thioimidazolone]: the MIC is 2 µg/mL (≈ 3.59 µM) in the assay on Candida glabrata 90030 (RPMI 1640, MOPS pH 7); 0.125 µg/mL (≈ 0.224 µM) against Candida krusei 6258 (QC) (setting [8]); “Long trailing effect” in [1] (setting [9]); less than 0.00025 µg/mL in assay [2] (RPMI 1640, MOPS pH 7); 0.5 µg/mL (≈ 0.897 µM) against Candida krusei 766.1 (RPMI 1640, MOPS pH 7); 0.125 µg/mL (≈ 0.224 µM) in [3] (setting [10]). Moreover, the MIC in assay [4] (RPMI 1640, MOPS pH 7) was less than 0.00025 µg/mL; with Candida albicans 1122 (RPMI 1640, MOPS pH 7) it was less than 0.00025 µg/mL; against Candida tropicalis 750 (RPMI 1640, MOPS pH 7), less than 0.00025 µg/mL; in [5] (setting [11]) it was 0.016 µg/mL (≈ 0.0287 µM); in the assay on Candida albicans Y-01-19 (RPMI 1640, MOPS pH 7), 0.5 µg/mL (≈ 0.897 µM).
